Laboratory results from BindingDB's records for patent US9593123 (Hoffmann-La Roche, 2017).

Target: Cannabinoid receptor 1 (Homo sapiens, UniProt P21554)
Sequence (P21554 whole entry): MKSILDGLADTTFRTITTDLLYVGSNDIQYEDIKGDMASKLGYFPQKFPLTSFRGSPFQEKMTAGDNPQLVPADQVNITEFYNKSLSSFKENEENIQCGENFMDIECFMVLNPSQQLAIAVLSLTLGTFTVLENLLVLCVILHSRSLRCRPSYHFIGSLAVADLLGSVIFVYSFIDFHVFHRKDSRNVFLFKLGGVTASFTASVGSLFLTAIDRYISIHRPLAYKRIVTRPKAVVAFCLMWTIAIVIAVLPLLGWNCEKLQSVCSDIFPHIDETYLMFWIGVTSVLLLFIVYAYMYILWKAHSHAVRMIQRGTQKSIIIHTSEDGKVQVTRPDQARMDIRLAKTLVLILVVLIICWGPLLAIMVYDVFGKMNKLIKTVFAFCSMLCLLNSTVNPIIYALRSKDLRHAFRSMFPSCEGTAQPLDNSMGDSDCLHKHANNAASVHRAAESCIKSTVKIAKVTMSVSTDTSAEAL

Q: Which EC50 does the source give for `CC(=O)N[C@H]1CCN(c2nc(O[C@@H](C)C(F)(F)F)nc3c2nnn3Cc2ccccc2C(F)(F)F)C1` [US9593123, Example 81] here?
A: > 10 µM
